ChEMBL document CHEMBL6071152, “Design, synthesis, and biological evaluation of oridonin derivatives as novel NLRP3 inflammasome inhibitors for the treatment of acute lung injury” (Eur J Med Chem, 2024)
Calls of active or inactive are those of the source. The rule behind the calls is not given here.

How the values were obtained:
[1] = target: NACHT, LRR and PYD domains-containing protein 3 (Mus musculus, UniProt Q8R4B8); assay: Inhibition of NLRP3 inflammasome activation in ICR mouse BMDM assessed as inhibition of LPS/ATP-stimulated IL-1 beta production in cell supernatant treated for 3 hrs with LPS followed by incubation with compound for 1 hr and later stimulated with ATP for 0.5 hrs by ELISA; assay type: cell-based
NACHT, LRR and PYD domains-containing protein 3, sequence (Q8R4B8 whole entry, the tested form may be a part): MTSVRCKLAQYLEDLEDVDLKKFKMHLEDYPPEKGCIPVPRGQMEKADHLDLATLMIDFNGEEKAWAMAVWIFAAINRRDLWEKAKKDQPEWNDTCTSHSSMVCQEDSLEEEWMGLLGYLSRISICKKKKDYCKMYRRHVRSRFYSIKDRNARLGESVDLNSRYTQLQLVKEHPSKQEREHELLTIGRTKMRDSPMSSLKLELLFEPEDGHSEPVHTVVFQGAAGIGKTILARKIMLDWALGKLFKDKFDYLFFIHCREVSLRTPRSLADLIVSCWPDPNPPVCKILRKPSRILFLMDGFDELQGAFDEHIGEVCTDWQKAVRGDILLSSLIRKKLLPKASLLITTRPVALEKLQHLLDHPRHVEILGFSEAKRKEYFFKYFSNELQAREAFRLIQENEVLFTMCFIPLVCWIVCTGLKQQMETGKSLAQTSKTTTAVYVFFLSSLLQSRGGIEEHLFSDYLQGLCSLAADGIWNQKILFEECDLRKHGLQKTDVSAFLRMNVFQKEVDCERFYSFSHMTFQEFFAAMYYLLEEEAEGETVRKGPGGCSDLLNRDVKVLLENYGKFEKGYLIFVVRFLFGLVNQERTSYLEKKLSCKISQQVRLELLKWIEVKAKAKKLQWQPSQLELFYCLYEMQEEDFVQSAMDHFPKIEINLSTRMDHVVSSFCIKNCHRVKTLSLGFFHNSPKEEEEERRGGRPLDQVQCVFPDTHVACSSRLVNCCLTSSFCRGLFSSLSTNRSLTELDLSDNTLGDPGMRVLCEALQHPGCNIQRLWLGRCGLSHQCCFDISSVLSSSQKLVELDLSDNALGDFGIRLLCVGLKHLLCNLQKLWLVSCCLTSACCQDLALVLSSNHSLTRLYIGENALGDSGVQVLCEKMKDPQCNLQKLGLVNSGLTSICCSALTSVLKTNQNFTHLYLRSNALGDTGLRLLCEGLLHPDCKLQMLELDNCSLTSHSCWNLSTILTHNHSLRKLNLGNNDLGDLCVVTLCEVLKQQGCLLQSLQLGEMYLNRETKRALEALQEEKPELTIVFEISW

[2] = Cytotoxicity against ICR mouse BMDM assessed as reduction in cell viability incubated for 24 hrs by CCK8 assay; assay type: toxicity, cell-based; conditions: BMDM (bone marrow-derived macrophages)
[3] = system: Mus musculus; assay: Anti-inflammatory activity against LPS-stimulated acute lung injury C57BL/6 mouse model assessed as decrease in weight loss at 1 mg/kg, ip treated for 3 days and on third day administered with LPS at 30 mins post-compound challenge; assay type: functional, organism-based; conditions: time 3.0 day
[4] = system: Mus musculus; assay: (§1) Anti-inflammatory activity against LPS-stimulated acute lung injury C57BL/6 mouse model assessed as decrease in weight loss at 5 mg/kg, ip treated for 3 days and on third day administered with LPS at 30 mins post-compound challenge; assay type: functional, organism-based; conditions: time 3.0 day
[5] = system: Mus musculus; assay: as §1, with “alveolar dilation in right lung” for “weight loss”, “challenge and measured after 12 hrs by Hematoxylin-Eosin staining analysis” for “challenge”; assay type: functional, organism-based; conditions: time 3.5 day
[6] = system: Mus musculus; assay: as §1, with “thickening of alveolar septa in right lung” for “weight loss”, “challenge and measured after 12 hrs by Hematoxylin-Eosin staining analysis” for “challenge”; assay type: functional, organism-based; conditions: time 3.5 day
[7] = system: Mus musculus; assay: Anti-inflammatory activity against LPS-stimulated acute lung injury C57BL/6 mouse model assessed as active animal at 5 mg/kg, ip treated for 3 days and on third day administered with LPS at 30 mins post-compound challenge; assay type: functional, organism-based; conditions: time 3.0 day
[8] = system: Mus musculus; assay: as §1, with “inflammatory cell infiltration in right lung” for “weight loss”, “challenge and measured after 12 hrs by Hematoxylin-Eosin staining analysis” for “challenge”; assay type: functional, organism-based; conditions: time 3.5 day
[9] = system: Mus musculus; assay: as §1, with “partial alveolar congestion in right lung” for “weight loss”, “challenge and measured after 12 hrs by Hematoxylin-Eosin staining analysis” for “challenge”; assay type: functional, organism-based; conditions: time 3.5 day

For `C=C1C(=O)[C@]23[C@H](O)[C@H]1CC[C@H]2[C@]12C=CCC(C)(C)[C@H]1[C@H](O)[C@@]3(O)OC2`, the IC50 [1] was 131 nM and the IC50 at 24 h [2] was > 10000 nM.
In the case of `CC(C)(O)c1coc(S(=O)(=O)NC(=O)Nc2c3c(cc4c2CCC4)CCC3)c1`, the IC50 at 24 h [2] is reported as > 10000 nM.
With `C=C1C(=O)[C@]23[C@H](OC(=O)Nc4ccccn4)[C@H]1CC[C@H]2[C@]12C=CCC(C)(C)[C@H]1[C@H](O)[C@@]3(O)OC2` the IC50 [1] was 96.1 nM and the IC50 at 24 h [2] was > 10000 nM.
With `C=C1C(=O)[C@]23[C@H](OC(=O)Nc4cccc(Cl)c4)[C@H]1CC[C@H]2[C@]12C=CCC(C)(C)[C@H]1[C@H](O)[C@@]3(O)OC2` the IC50 [1] was 80.8 nM and the IC50 at 24 h [2] was > 10000 nM.
With `C=C1C(=O)[C@]23[C@H](O)[C@H]1CC[C@H]2[C@@]12CO[C@]3(O)[C@@H](O)[C@@H]1C(C)(C)CC[C@@H]2O` [ORIDONIN] the Activity [3] was “Active”, the IC50 [1] was 1240 nM and the IC50 at 24 h [2] was > 10000 nM.
In the case of `C=C1C(=O)[C@]23[C@H](OC(=O)NC4CCCCC4)[C@H]1CC[C@H]2[C@]12C=CCC(C)(C)[C@H]1[C@H](O)[C@@]3(O)OC2`, the IC50 [1] is reported as 135 nM and the IC50 at 24 h [2] is reported as > 10000 nM.
For `C=C1C(=O)[C@]23[C@H](OC(=O)NC4CCCC4)[C@H]1CC[C@H]2[C@]12C=CCC(C)(C)[C@H]1[C@H](O)[C@@]3(O)OC2`, the IC50 [1] was 178 nM and the IC50 at 24 h [2] was > 10000 nM.
With `C=C1C(=O)[C@]23[C@H](OC(=O)Nc4ccccc4Cl)[C@H]1CC[C@H]2[C@]12C=CCC(C)(C)[C@H]1[C@H](O)[C@@]3(O)OC2` the IC50 [1] was 88.6 nM and the IC50 at 24 h [2] was > 10000 nM.
In the case of `C[C@@H]1C[C@H]2[C@@H]3CCC4=CC(=O)C=C[C@]4(C)[C@@]3(F)[C@@H](O)C[C@]2(C)[C@@]1(O)C(=O)CO`, the Activity [4] is reported as “Active”, the Activity [5] is reported as “Active” and the Activity [6] is reported as “Active”. For the same compound, the Activity [7] was “Active”, the Activity [8] was “Active” and the Activity [9] was “Active”.
For `C=C1C(=O)[C@]23[C@H](OC(=O)Nc4cccc5ccccc45)[C@H]1CC[C@H]2[C@]12C=CCC(C)(C)[C@H]1[C@H](O)[C@@]3(O)OC2`, the IC50 [1] was 74.9 nM and the IC50 at 24 h [2] was > 10000 nM.
